According to patent US12581252B2, “Substituted pyrrolo[3,4-b]pyridines as PI3K-α inhibitors” (Relay Therapeutics, Inc., priority 2020, dated 2026):

Biological target: H1047R PIK3CA enzyme (Homo sapiens, UniProt P42336, H1047R)
Test: ADP-Glo Biochemical PIK3CA Kinase Assay

Sequence of H1047R PIK3CA enzyme (P42336 whole entry H1047R): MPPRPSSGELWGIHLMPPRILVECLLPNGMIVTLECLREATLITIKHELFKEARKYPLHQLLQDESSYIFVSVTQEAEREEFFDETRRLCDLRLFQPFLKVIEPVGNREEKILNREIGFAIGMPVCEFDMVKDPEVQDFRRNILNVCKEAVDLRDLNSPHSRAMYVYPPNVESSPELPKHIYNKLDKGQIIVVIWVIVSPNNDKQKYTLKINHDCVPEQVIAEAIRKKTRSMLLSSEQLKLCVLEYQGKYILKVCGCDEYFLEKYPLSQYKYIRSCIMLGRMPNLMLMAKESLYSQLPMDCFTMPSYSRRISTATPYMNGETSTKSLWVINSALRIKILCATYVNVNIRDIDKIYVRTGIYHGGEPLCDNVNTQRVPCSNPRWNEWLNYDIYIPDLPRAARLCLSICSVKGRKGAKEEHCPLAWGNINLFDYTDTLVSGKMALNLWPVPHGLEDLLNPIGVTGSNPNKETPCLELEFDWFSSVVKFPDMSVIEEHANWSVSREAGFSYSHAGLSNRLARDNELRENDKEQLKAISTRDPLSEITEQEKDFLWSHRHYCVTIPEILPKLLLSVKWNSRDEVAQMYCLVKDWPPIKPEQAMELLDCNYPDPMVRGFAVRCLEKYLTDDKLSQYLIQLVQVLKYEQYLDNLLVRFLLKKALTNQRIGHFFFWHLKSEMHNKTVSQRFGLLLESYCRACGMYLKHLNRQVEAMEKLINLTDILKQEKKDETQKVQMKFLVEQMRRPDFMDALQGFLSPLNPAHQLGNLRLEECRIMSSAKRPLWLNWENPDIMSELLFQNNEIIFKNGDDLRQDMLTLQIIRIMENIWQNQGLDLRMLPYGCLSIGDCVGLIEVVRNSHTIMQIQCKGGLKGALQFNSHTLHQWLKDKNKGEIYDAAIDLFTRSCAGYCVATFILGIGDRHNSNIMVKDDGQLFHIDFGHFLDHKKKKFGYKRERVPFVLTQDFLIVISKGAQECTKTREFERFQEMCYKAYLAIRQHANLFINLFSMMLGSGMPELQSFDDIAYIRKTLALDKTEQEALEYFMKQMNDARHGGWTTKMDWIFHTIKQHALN
Sequence of H1047R PIK3CA enzyme (P27986 whole entry partner): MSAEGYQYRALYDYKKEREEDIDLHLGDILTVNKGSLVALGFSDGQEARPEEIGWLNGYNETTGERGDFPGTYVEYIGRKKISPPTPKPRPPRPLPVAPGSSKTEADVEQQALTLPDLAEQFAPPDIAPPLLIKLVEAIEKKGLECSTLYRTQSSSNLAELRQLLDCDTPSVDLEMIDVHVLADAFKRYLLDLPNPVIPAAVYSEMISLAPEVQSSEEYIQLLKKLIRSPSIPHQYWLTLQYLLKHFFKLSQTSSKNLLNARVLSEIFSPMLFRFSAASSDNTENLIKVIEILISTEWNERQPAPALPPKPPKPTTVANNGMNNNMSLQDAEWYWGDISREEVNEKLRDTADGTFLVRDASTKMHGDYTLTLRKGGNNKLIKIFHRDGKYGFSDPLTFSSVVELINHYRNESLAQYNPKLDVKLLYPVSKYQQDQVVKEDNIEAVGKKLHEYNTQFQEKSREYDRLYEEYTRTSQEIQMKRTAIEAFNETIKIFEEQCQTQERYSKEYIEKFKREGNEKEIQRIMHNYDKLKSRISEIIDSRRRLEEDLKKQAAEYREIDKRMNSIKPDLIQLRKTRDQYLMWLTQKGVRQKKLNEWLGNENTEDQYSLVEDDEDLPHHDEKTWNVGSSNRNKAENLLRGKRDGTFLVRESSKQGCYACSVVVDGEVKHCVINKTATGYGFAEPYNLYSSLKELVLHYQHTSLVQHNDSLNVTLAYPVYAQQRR

Row | IC50 [µM] | Compound
1 | 10 to 100 | Cc1cccc(C2(C(=O)Nc3cc(Br)cc4c3C(c3cc(F)ccc3Cl)NC4=O)CCCC2)c1 (stereo not shown) [Compound I-1639]
2 | 1 to 10 | O=C(Nc1cc(Br)cc2c1C(c1cc(F)ccc1Cl)NC2=O)c1cc(C(F)(F)F)ccc1F (stereo not shown) [Compound I-515]
3 | 1 to 10 | O=C1NC(c2cc(F)ccc2Cl)c2c(NC(=O)N3CCCCC3c3ccccc3)cc(Br)cc21 (stereo not shown) [Compound I-772]
4 | ≤ 0.1 | O=C(Nc1cc(C2CC23CC3)cc2c1C(c1cc(F)ccc1Cl)NC2=O)c1cc(F)cc(C(F)(F)F)c1 (stereo not shown) [Compound I-1266]
5 | 0.1 to 0.5 | NCCc1cc(NC(=O)N2C[C@@H](O)c3cc(F)ccc32)c2c(c1)C(=O)N[C@@H]2c1cc(F)ccc1Cl (single isomer, unassigned) [Compound I-2444]
6 | 10 to 100 | O=C(Cn1ncc2ccccc21)Nc1cc(Br)cc2c1C(c1cc(F)ccc1Cl)NC2=O (stereo not shown) [Compound I-633]
7 | 1 to 10 | O=C(Nc1cc(-c2ccc(=O)n(C3CC3)c2)cc2c1[C@@H](c1cc(F)ccc1Cl)NC2=O)c1cc(F)cc(C(F)(F)F)c1 [Compound I-744]
8 | 1 to 10 | CS(=O)(=O)Nc1cc(-c2ccc3ncnn3c2)cc2c1C(c1cc(F)ccc1Cl)NC2=O (stereo not shown) [Compound I-1898]
9 | 10 to 100 | O=C(Nc1cc(-c2cnn(C3CC3)c2)cc2c1[C@@H](c1cc(F)ccc1Cl)NC2=O)c1cc(F)cc(C(F)(F)F)c1 (single isomer, unassigned) [Compound I-1021]
10 | 0.1 to 0.5 | O=C(Nc1cc(Br)cc2c1C(c1cc(F)ccc1Cl)NC2=O)NC12CC3CC(CC(C3)C1)C2 (stereo not shown) [Compound I-1257]
11 | 1 to 10 | N#Cc1cccc(C(=O)Nc2cc(Br)cc3c2C(c2cc(F)ccc2Cl)NC3=O)c1 (stereo not shown) [Compound I-522]
12 | 1 to 10 | CC1(C)CCc2scc(C(=O)Nc3cccc4c3C(c3cc(F)ccc3Cl)NC4=O)c2C1 (stereo not shown) [Compound I-2235]
13 | ≤ 0.1 | O=C1NC(c2cc(F)ccc2Cl)c2c(NC(=O)N3CCc4cc(F)ccc43)cc(Br)cc21 (stereo not shown) [Compound I-1270]
14 | 10 to 100 | CN(Cc1cccc(O)c1)C(=O)Nc1cc(Br)cc2c1C(c1cc(F)ccc1Cl)NC2=O (stereo not shown) [Compound I-1382]
15 | 10 to 100 | CN1CCN(C(=O)Nc2cc(Br)cc3c2[C@H](c2cc(F)ccc2Cl)NC3=O)CC1 (single isomer, unassigned) [Compound I-2244]
16 | 10 to 100 | CC(=O)N1CCC(C(=O)Nc2cc(-c3ccc4ncnn4c3)cc3c2C(c2cc(F)ccc2Cl)NC3=O)CC1 (stereo not shown) [Compound I-1744]
17 | 1 to 10 | O=C1NC(c2cc(F)ccc2Cl)c2c(NC(=O)N3CCC(F)(F)C3)cc(Br)cc21 (stereo not shown) [Compound I-482]
18 | 1 to 10 | Nc1cc(C(=O)Nc2cccc3c2C(c2cc(F)ccc2Cl)NC3=O)cc(C(F)(F)F)c1 (stereo not shown) [Compound I-449]
19 | ≤ 0.1 | Nc1cc(NC(=O)N2C[C@H](O)c3ccccc32)c2c(c1)C(=O)N[C@H]2c1cc(F)ccc1Cl (single isomer, unassigned) [Compound I-2132]
20 | 1 to 10 | O=C(Nc1cc(Br)cc2c1C(c1cc(F)ccc1Cl)NC2=O)c1ccc(Cl)cc1 (stereo not shown) [Compound I-527]
21 | 1 to 10 | O=C1N[C@@H](c2cc(F)ccc2Cl)c2c(NC(=O)N3C[C@@](O)(C(F)F)c4cc(F)ccc43)cc(F)cc21 (single isomer, unassigned) [Compound I-2633]
22 | 10 to 100 | O=C1N[C@H](c2cc(F)ccc2Cl)c2c(NC(=O)[C@@H]3C[C@@H](O)C[C@H](C(F)(F)F)C3)cccc21 (single isomer, unassigned) [Compound I-2176]
23 | 0.1 to 0.5 | O=C1NC(c2cc(F)ccc2Cl)c2c(NC(=O)N3CC4(CC4)c4cc(F)ccc43)cc(Br)cc21 (stereo not shown) [Compound I-1512]
24 | 10 to 100 | N#Cc1ccc(C(=O)Nc2cc(Br)cc3c2C(c2cc(F)ccc2Cl)NC3=O)cc1 (stereo not shown) [Compound I-517]

More lines, now with the values behind:

Row | Compound | IC50 [µM]
25 | CC(C)(O)CN(CC(C)(C)O)c1cc(NC(=O)c2cc(F)cc(C(F)(F)F)c2)c2c(c1)C(=O)NC2c1cc(F)ccc1Cl (stereo not shown) [Compound I-848] | 1 to 10
26 | Cc1c(-c2cc(NC(=O)c3cc(F)cc(C(F)(F)F)c3)c3c(c2)C(=O)NC3c2cc(F)ccc2Cl)ccc2ncnn12 (stereo not shown) [Compound I-1825] | ≤ 0.1
27 | Cc1ccccc1C1NC(=O)c2cccc(NC(=O)c3nn(C)c4ccccc34)c21 (stereo not shown) [Compound I-17] | 10 to 100
28 | CN(C)c1cc(NC(=O)N2C[C@](O)(C(F)(F)F)c3cc(F)ccc32)c2c(n1)C(=O)N[C@@H]2c1cc(F)ccc1Cl (single isomer, unassigned) [Compound I-2692] | 10 to 100
29 | N#CCCc1cc(NC(=O)c2cc(F)cc(C(F)(F)F)c2)c2c(c1)C(=O)N[C@@H]2c1cc(F)ccc1Cl (stereo in doubt) [Compound I-2170] | 10 to 100
30 | CCCCC(C)(O)c1cc(NC(=O)c2cc(F)cc(C(F)(F)F)c2)c2c(c1)C(=O)NC2c1cc(F)ccc1Cl (stereo not shown) [Compound I-1186] | ≤ 0.1
31 | CN(C)S(=O)(=O)n1nccc1-c1cc(NC(=O)c2cc(F)cc(C(F)(F)F)c2)c2c(c1)C(=O)NC2c1cc(F)ccc1Cl (stereo not shown) [Compound I-1439] | ≤ 0.1
32 | Cc1ccccc1[C@H]1NC(=O)c2c(C(N)=O)ccc(NC(=O)c3cc(F)cc(C(F)(F)F)c3)c21 [Compound I-509] | 0.1 to 0.5
33 | N#Cc1cnn2ccc(-c3cc(NC(=O)c4cc(F)cc(C(F)(F)F)c4)c4c(c3)C(=O)N[C@@H]4c3cc(F)ccc3Cl)cc12 [Compound I-1798] | 1 to 10
34 | O=C(Nc1cc(-c2ccn3ncnc3c2)cc2c1[C@H](c1cc(F)ccc1Cl)NC2=O)c1cc(F)cc(C(F)(F)F)c1 (stereo in doubt) [Compound I-1597] | ≤ 0.1
35 | COc1cccc2c(C(=O)Nc3cccc4c3C(c3ccccc3C)NC4=O)csc12 (stereo not shown) [Compound I-198] | 10 to 100
36 | CC(C)(O)Cc1cc(NC(=O)c2cc(F)cc(C(F)(F)F)c2)c2c(c1)C(=O)N[C@H]2c1cc(F)ccc1Cl [Compound I-621] | ≤ 0.1
37 | N#CCCn1cc(-c2cc(NC(=O)c3cc(F)cc(C(F)(F)F)c3)c3c(c2)C(=O)NC3c2cc(F)ccc2Cl)cn1 (stereo not shown) [Compound I-1397] | ≤ 0.1
38 | CC1(C)CC1C1NC(=O)c2cccc(NC(=O)c3cc(F)cc(C(F)(F)F)c3)c21 (stereo not shown) [Compound I-1766] | 1 to 10
39 | Cc1ccccc1C1NC(=O)c2cccc(NC(=O)c3c[nH]c(=O)c(Br)c3C)c21 (stereo not shown) [Compound I-504] | 10 to 100
40 | Cc1ccccc1C1NC(=O)c2cc(-c3cnoc3)cc(NC(=O)c3csc4ccccc34)c21 (stereo not shown) [Compound I-141] | ≤ 0.1
41 | O=C(Nc1cccc2c1C(c1cccc(C3CC3)c1)NC2=O)c1cc(F)cc(C(F)(F)F)c1 (stereo not shown) [Compound I-718] | 10 to 100
42 | N#Cc1cnc2c(F)cc(-c3cc(NC(=O)c4cc(F)cc(C(F)(F)F)c4)c4c(c3)C(=O)NC4c3cc(F)ccc3Cl)cn12 (stereo not shown) [Compound I-1797] | ≤ 0.1
43 | O=C(Nc1cccc2c1[C@@H](NC1CCCC1)NC2=O)c1cc(F)cc(C(F)(F)F)c1 (single isomer, unassigned) [Compound I-2249] | 10 to 100
44 | O=C(Nc1cc(-n2ccc3ncccc3c2=O)cc2c1C(c1cc(F)ccc1Cl)NC2=O)c1cc(F)cc(C(F)(F)F)c1 (stereo not shown) [Compound I-1250] | ≤ 0.1

Row | Compound | IC50 [µM]
45 | Cc1ccccc1[C@@H]1NC(=O)c2nccc(NC(=O)N3C[C@H](C)c4ccccc43)c21 (single isomer, unassigned) [Compound I-300] | 0.1 to 0.5
46 | Nc1nnc2ccc(-c3cc(NC(=O)c4cc(F)cc(C(F)(F)F)c4)c4c(c3)C(=O)N[C@@H]4c3cc(F)ccc3Cl)cn12 [Compound I-1448] | 0.5 to 1
47 | O=C1N[C@@H](c2cc(F)ccc2C(F)F)c2c(NC(=O)c3nsc4ccccc34)cccc21 [Compound I-168] | ≤ 0.1
48 | N#Cc1c(-c2cc(NC(=O)c3cc(F)cc(C(F)(F)F)c3)c3c(c2)C(=O)N[C@@H]3c2cc(F)ccc2Cl)cnn1C(F)F [Compound I-1920] | 1 to 10
49 | O=C(Nc1cc(OC[C@@H]2CCCN2)cc2c1C(c1cc(F)ccc1Cl)NC2=O)c1cc(F)cc(C(F)(F)F)c1 (single isomer, unassigned) [Compound I-1468] | 0.1 to 0.5
50 | Cc1ccccc1C1NC(=O)c2nccc(NC(=O)N3CCc4cccnc43)c21 (stereo not shown) [Compound I-282] | 1 to 10
51 | O=C1Cc2c(cccc2-c2cc(NC(=O)c3cc(F)cc(C(F)(F)F)c3)c3c(c2)C(=O)NC3c2cc(F)ccc2Cl)N1 (stereo not shown) [Compound I-1034] | ≤ 0.1
52 | O=C(Nc1cc(-c2ccc3nc[nH]c3c2)cc2c1C(c1cc(F)ccc1Cl)NC2=O)c1cc(F)cc(C(F)(F)F)c1 (stereo not shown) [Compound I-1035] | ≤ 0.1
53 | [2H]c1nc2ccc(-c3cc(NC(=O)c4cc(F)cc(C(F)(F)F)c4)c4c(c3)C(=O)NC4c3cc(F)ccc3Cl)cn2n1 (stereo not shown) [Compound I-1589] | ≤ 0.1
54 | Cc1ccccc1C1NC(=O)c2cccc(NC(=O)c3cnc(OC(C)C)c(F)c3)c21 (stereo not shown) [Compound I-109] | 10 to 100
55 | O=C1N[C@@H](c2cc(F)ccc2Cl)c2c(NC(=O)N3C[C@@](O)(C(F)(F)F)c4cc(F)ccc43)cc(-n3nccn3)cc21 (single isomer, unassigned) [Compound I-2571] | 1 to 10
56 | O=C(Nc1cc(OC2CCOCC2)cc2c1C(c1cc(F)ccc1Cl)NC2=O)c1cc(F)cc(C(F)(F)F)c1 (stereo not shown) [Compound I-1135] | ≤ 0.1
57 | O=C(Nc1cc(NC2=NC[C@@H](C(F)(F)F)O2)cc2c1[C@@H](c1cc(F)ccc1Cl)NC2=O)c1cc(F)cc(C(F)(F)F)c1 (single isomer, unassigned) [Compound I-2326] | 1 to 10
58 | O=C(Nc1cnc(N2CCOCC2)c2c1C(c1cc(F)ccc1Cl)NC2=O)c1cc(F)cc(C(F)(F)F)c1 (stereo not shown) [Compound I-255] | 1 to 10
59 | CC(O)C1NC(=O)c2cccc(NC(=O)c3cc(F)cc(C(F)(F)F)c3)c21 (stereo not shown) [Compound I-1776] | 1 to 10
60 | N#CCc1cc(NC(=O)c2cc(F)cc(C(F)(F)F)c2)c2c(c1)C(=O)N[C@@H]2c1cc(F)ccc1Cl [Compound I-1087] | 0.1 to 0.5
61 | Cc1ccccc1C1NC(=O)c2cccc(NC(=O)N3CC(C)c4ccccc43)c21 (stereo not shown) [Compound I-95] | 0.1 to 0.5
62 | Nc1ncc(C#Cc2cc(NC(=O)c3cc(F)cc(C(F)(F)F)c3)c3c(c2)C(=O)NC3c2cc(F)ccc2Cl)cn1 (stereo not shown) [Compound I-1153] | ≤ 0.1
63 | O=C(Nc1cccc2c1[C@H](C1CCC(F)(F)CC1)NC2=O)c1cc(F)cc(C(F)(F)F)c1 (racemic) [Compound I-1836] | 10 to 100
64 | O=C(Nc1cccc2c1[C@H](c1cc(F)ccc1C(F)F)NC2=O)c1cc(F)cc(C(F)(F)F)c1 [Compound I-170] | ≤ 0.1
